Tests used:
Experiment in all cases: relative viability (nuclei count vs DMSO), 5 days (fraction); higher = more cells survive
QS11 + Pictilisib = compound: C1CC2=C(C1)C=C(C=C2)OC3=NC(=C4C(=N3)N(C=N4)CC5=CC=C(C=C5)C6=CC=CC=C6)N[C@@H](CC7=CC=CC=C7)CO [QS11] + CS(=O)(=O)N1CCN(Cc2cc3nc(-c4cccc5[nH]ncc45)nc(N4CCOCC4)c3s2)CC1 [Pictilisib] (partner 1 µM)
Procedure, shortened: (§1)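 A single step with final 0.05% Triton X-100, 1% formaldehyde and 1 ug/ml Hoechst fixed the cells and stained nuclei 5 days after treatment. Lung cancer cell lines in 1536-well plates had been treated by pin tool the day after seeding with one drug alone or a fixed anchor-drug dose plus five library-drug doses (not always all listed) in √10 steps, and nuclei were counted on 4× images. Relative viability is the ratio of nuclei in treated wells to nuclei in vehicle wells, taken as the median of duplicate plates.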

QS11 + Luminespib = compound: C1CC2=C(C1)C=C(C=C2)OC3=NC(=C4C(=N3)N(C=N4)CC5=CC=C(C=C5)C6=CC=CC=C6)N[C@@H](CC7=CC=CC=C7)CO [QS11] + CCNC(=O)c1noc(-c2cc(C(C)C)c(O)cc2O)c1-c1ccc(CN2CCOCC2)cc1 [Luminespib] (partner 0.01 µM)
Procedure, shortened: as §1

QS11 + Bortezomib = compound: C1CC2=C(C1)C=C(C=C2)OC3=NC(=C4C(=N3)N(C=N4)CC5=CC=C(C=C5)C6=CC=CC=C6)N[C@@H](CC7=CC=CC=C7)CO [QS11] + CC(C)C[C@H](NC(=O)[C@H](Cc1ccccc1)NC(=O)c1cnccn1)B(O)O [Bortezomib] (partner 0.002 µM)
Procedure, shortened: as §1

[1] = compound: C[As](C)SC[C@H](NC(=O)CC[C@H](N)C(=O)O)C(=O)NCC(=O)O [Darinaparsin] + CC(=O)Nc1cccc(-n2c(=O)n(C3CC3)c(=O)c3c(Nc4ccc(I)cc4F)n(C)c(=O)c(C)c32)c1 [Trametinib] (partner 0.02 µM)
Procedure, shortened: as §1

| Cell Line | relative viability (QS11 + Pictilisib; first compound 0.08 µM) | relative viability (QS11 + Pictilisib; first compound 0.253 µM) | relative viability (QS11 + Pictilisib; first compound 0.8 µM) | relative viability (QS11 + Pictilisib; first compound 2.53 µM) | relative viability (QS11 + Pictilisib; first compound 8 µM) | relative viability (QS11 + Luminespib; first compound 0.08 µM) | relative viability (QS11 + Luminespib; first compound 0.253 µM) | relative viability (QS11 + Luminespib; first compound 0.8 µM) | relative viability (QS11 + Luminespib; first compound 2.53 µM) | relative viability (QS11 + Luminespib; first compound 8 µM) | relative viability (QS11 + Bortezomib; first compound 0.08 µM) | relative viability (QS11 + Bortezomib; first compound 0.253 µM) | relative viability (QS11 + Bortezomib; first compound 0.8 µM) | relative viability (QS11 + Bortezomib; first compound 2.53 µM) | relative viability (QS11 + Bortezomib; first compound 8 µM) | relative viability ([1]; first compound 0.08 µM) | relative viability ([1]; first compound 0.8 µM) | relative viability ([1]; first compound 2.53 µM) | relative viability ([1]; first compound 8 µM) |
| --- | --- | --- | --- | --- | --- | --- | --- | --- | --- | --- | --- | --- | --- | --- | --- | --- | --- | --- | --- |
| LC-2-ad | 0.506 | 0.478 | 0.441 | 0.534 | 0.547 | 0.851 | 0.981 | 0.857 | 0.956 | 1.17 | 0.987 | 1.03 | 0.651 | 0.962 | 1.1 | 0.975 | 0.903 | 0.815 | 1.08 |
| LCLC-103H | 0.636 | 0.543 | 0.591 | 0.74 | 0.609 | 0.661 | 1.17 | 0.747 | 0.915 | 1.02 | 1.04 | 1.1 | 0.811 | 1.07 | 0.891 | 0.69 | 0.659 | 0.675 | 0.765 |
| LOU-NH91 | 0.541 | 0.484 | – | 0.494 | 0.54 | 0.361 | 0.361 | 0.34 | 0.308 | 0.368 | 0.494 | 0.491 | 0.417 | 0.488 | 0.437 | 0.848 | 0.747 | 0.851 | 0.822 |
| LU99A | 0.343 | 0.317 | 0.357 | 0.296 | 0.307 | 0.238 | 0.269 | 0.284 | 0.273 | 0.335 | 0.878 | 1.37 | 1.17 | 1.11 | 0.706 | 0.529 | 0.62 | 0.545 | 0.55 |
| LXF-289 | 0.761 | 0.796 | 0.673 | 0.704 | 0.754 | 0.544 | 0.739 | 0.544 | 0.519 | 0.551 | 1 | 0.996 | 0.791 | 0.819 | 0.614 | 0.768 | 0.667 | 0.677 | 0.697 |
| NCI-H23 | 0.394 | 0.413 | 0.405 | 0.433 | 0.361 | 0.212 | 0.237 | 0.208 | 0.227 | 0.182 | 1.03 | 0.926 | 0.978 | 0.722 | 1 | 0.402 | 0.339 | 0.43 | 0.409 |
| NCI-H322M | 0.55 | 0.483 | 0.492 | 0.545 | 0.49 | 0.823 | 0.863 | 0.911 | 0.99 | 1.24 | 1.31 | 1.04 | 1.27 | 1.4 | 1.63 | 0.525 | 0.505 | 0.495 | 0.511 |
| NCI-H441 | 0.472 | 0.529 | 0.501 | 0.5 | 0.608 | 0.376 | 0.286 | 0.329 | 0.315 | 0.328 | 0.437 | 0.536 | 0.475 | 0.444 | 0.299 | 0.507 | 0.471 | 0.429 | 0.295 |
| NCI-H460 | 0.301 | 0.351 | 0.532 | 0.352 | 0.473 | 0.0331 | 0.0356 | 0.0316 | 0.0243 | 0.0438 | 1.04 | 1.13 | 0.819 | 0.973 | 0.345 | 0.312 | 0.329 | 0.12 | 0.166 |
| NCI-H520 | – | 0.343 | 0.27 | 0.321 | 0.275 | 0.25 | 0.369 | 0.228 | 0.231 | 0.209 | – | 0.593 | 0.541 | 0.479 | 0.471 | 0.883 | 0.718 | 0.669 | 0.697 |
| NCI-H596 | 0.382 | 0.189 | 0.516 | 0.404 | 0.438 | 0.87 | 1.09 | 0.919 | 0.829 | 0.934 | – | 0.807 | 1.15 | 0.869 | 1.06 | 0.762 | 0.748 | 0.856 | 0.755 |
| NCI-H647 | – | 0.379 | 0.41 | 0.685 | 0.478 | 0.155 | 0.321 | 0.118 | 0.171 | 0.141 | 0.938 | 0.987 | 0.976 | 1.08 | 0.894 | 0.537 | 0.512 | 0.385 | 0.655 |
| NCI-H650 | 0.861 | 0.939 | 0.902 | 0.876 | 0.958 | 0.758 | 0.806 | 0.802 | 0.654 | 0.868 | 0.681 | 0.625 | 0.815 | 0.819 | 0.888 | 0.856 | 1.01 | 1.04 | 0.956 |
| NCI-H661 | 0.424 | 0.397 | 0.407 | 0.376 | 0.383 | 0.988 | 0.96 | 0.806 | 1.08 | 0.839 | 0.718 | 0.685 | 0.685 | 0.912 | 0.919 | 0.646 | 0.618 | 0.532 | 0.677 |
| NCI-H727 | 0.355 | 0.304 | 0.407 | 0.279 | 0.229 | 0.876 | 0.391 | 0.341 | 0.321 | 0.341 | 0.804 | 0.72 | 0.893 | 0.739 | 0.35 | 0.372 | 0.397 | 0.381 | 0.383 |
| NCI-H838 | 0.399 | 0.388 | 0.394 | 0.382 | 0.476 | 0.284 | 0.246 | 0.282 | 0.289 | 0.275 | 0.942 | 0.641 | 0.684 | 0.851 | 0.923 | 0.54 | 0.458 | 0.504 | 0.666 |

From the supplement of paper PMC10307832
